The results in this text go back to publication PMC12154458, “High-Throughput Screens of Repurposing Hub and DOS Chemical Libraries Reveal Compounds with Novel and Potent Inhibitory Activity Against the Essential Non-Neuronal Acetylcholinesterase of Schistosoma mansoni (SmTAChE)” (International Journal of Molecular Sciences, 2025).

“Also recorded” adds a separate entry of the source. Where two headings read alike, the source gives them in different places.

For assay [1], the target named is T1, rSmTAChE (Schistosoma mansoni, UniProt A0A3Q0KMM5). As to the kind of experiment: biochemical. The settings on record: for inhibition at 20 µM: read-out: rSmTAChE HTS Inhibition (Ave, %).
In assay [2] the target is T1, rSmTAChE. In kind it is biochemical.
Assay [3] has as its target recombinant human acetylcholinesterase, rHsAChE (Homo sapiens, UniProt P22303). As to the kind of experiment: biochemical.
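For Inhibition (%) (Average) in this document: mostly 20 µM final but a few compounds at 5 or 10 µM.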
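For Inhibition (%) Replicate A in this document: mostly 20 µM final but a few compounds at 5 or 10 µM.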
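For Inhibition (%) Replicate B in this document: mostly 20 µM final but a few compounds at 5 or 10 µM.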

T1 sequence (A0A3Q0KMM5 27-661 limits assumed): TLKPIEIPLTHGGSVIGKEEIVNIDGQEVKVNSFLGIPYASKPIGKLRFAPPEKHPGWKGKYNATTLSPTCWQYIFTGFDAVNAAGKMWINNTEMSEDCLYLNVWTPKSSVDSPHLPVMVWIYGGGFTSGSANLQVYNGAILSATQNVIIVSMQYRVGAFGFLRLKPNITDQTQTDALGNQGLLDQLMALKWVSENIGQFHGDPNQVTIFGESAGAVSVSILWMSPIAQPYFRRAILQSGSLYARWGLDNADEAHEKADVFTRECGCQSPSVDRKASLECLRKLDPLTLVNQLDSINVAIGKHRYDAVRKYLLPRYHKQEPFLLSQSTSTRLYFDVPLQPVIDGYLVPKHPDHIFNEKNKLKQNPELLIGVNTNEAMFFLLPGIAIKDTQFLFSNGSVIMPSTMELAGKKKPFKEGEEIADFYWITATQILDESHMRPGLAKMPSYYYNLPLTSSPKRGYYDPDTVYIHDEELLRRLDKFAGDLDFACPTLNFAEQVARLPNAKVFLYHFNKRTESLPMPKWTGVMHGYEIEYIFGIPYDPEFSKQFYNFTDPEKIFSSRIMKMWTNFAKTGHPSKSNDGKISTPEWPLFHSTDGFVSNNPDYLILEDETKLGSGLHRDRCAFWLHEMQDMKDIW
recombinant human acetylcholinesterase, rHsAChE, sequence (P22303 32-614): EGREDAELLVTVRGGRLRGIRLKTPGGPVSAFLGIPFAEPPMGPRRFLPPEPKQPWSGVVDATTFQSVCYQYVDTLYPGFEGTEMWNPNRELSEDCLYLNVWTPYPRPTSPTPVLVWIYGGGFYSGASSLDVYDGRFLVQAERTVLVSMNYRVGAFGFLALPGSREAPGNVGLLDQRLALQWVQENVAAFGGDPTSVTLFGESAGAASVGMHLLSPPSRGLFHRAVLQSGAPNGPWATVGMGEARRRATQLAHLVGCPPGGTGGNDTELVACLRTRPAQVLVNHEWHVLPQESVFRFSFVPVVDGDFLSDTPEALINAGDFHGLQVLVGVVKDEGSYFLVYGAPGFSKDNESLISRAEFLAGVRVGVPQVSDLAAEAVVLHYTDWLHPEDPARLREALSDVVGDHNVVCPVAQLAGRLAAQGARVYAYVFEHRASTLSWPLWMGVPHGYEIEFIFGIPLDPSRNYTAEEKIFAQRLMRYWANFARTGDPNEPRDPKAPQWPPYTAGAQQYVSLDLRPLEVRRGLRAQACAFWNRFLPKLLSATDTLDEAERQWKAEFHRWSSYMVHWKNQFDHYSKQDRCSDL

`O=C(O)Cn1nnc(-c2cc(N3CCC(Oc4cc(F)ccc4Br)CC3)no2)n1` [MK-8245, reference compound]: on rSmTAChE [1], the inhibition at 20 µM was determined as 71.5%. Also, the “Data Mode (curve class), rSmTAChE” value at rSmTAChE [2] is given as “decreasing”. Besides, in assay [3], the “SI (Sm/Hs)” value is 4.71. Besides, in assay [3] (Table 3, read-out: IC50 (µM) rHsAChE), the IC50 worked out at 7.93 µM. Besides, in assay [3] (dose response analysis of Drug Repurposing Hub hits against rHsAChE), the “Data Mode (curve class), rHsAChE” value is “decreasing”.

For `COc1ccc(C#Cc2ccc3c(c2)O[C@@H](CN(C)S(=O)(=O)c2ccccc2F)[C@@H](C)CN([C@@H](C)CO)S3(=O)=O)cc1` [BRD-K10241968-001-01-1], on rSmTAChE [1], the “Inhibition (%) (Average)” value was 63.03%, the “Inhibition (%) Replicate A” value was determined as 63.23% and the “Inhibition (%) Replicate B” value came to 62.84%. In addition, at rSmTAChE [2], the “rSmTAChE Data Mode” value is “inactive”. Moreover, the “rHsAChE Data Mode” value in assay [3] was “inactive”.

Consider SR-33805 [reference compound], for which, at rSmTAChE [1], the “Inhibition (%) (Average)” value stood at 74.26%, the “Inhibition (%) Replicate A” value is 73.90% and the “Inhibition (%) Replicate B” value came out at 74.62%. In addition, the “HTS/rSmTAChE Inhibition (Ave, %)” value at rSmTAChE [1] (5 µM) was determined as 74.26%. At rSmTAChE [2], the “Data Mode (curve class), rSmTAChE” value is “decreasing”. For the same compound, the IC50 on rSmTAChE [2] (read-out: IC50 (µM) rSmTAChE) stood at 6.82 µM. In assay [3], the “IC50 (µM) rHsAChE” value is on record as “Inactive” and the “inhibition of rHsAChE, result in words” value is “no inhibition detected; also recorded: no activity detected”.

Turning to `Cc1cc(SCc2sc(-c3ccc(C(F)(F)F)cc3)nc2C)ccc1OCC(=O)O` [BRD-K14880289-001-03-0], at rSmTAChE [1], the “Inhibition (%) (Average)” value is given as 75.45%, the “Inhibition (%) Replicate A” value was 71.99% and the “Inhibition (%) Replicate B” value is given as 78.91%. Also, on rSmTAChE [2], the “Data Mode (curve class), rSmTAChE” value is given as “decreasing”. The IC50 at rSmTAChE [2] (read-out: qAC50 (IC50), rSmTAChE) was 16.4 µM. Also, in assay [3], the “Data Mode (curve class), rHsAChE” value is listed as “decreasing”. Moreover, in assay [3] (read-out: qAC50 (IC50), rHsAChE), the IC50 was found to be 10.5 µM.

As for `COc1ccc(NC(=O)Nc2ccc3c(c2)[C@H]2C[C@@H](CC(=O)NCc4ccccn4)O[C@@H](CO)[C@H]2O3)cc1` [BRD-K46319090-001-01-4], at rSmTAChE [1], the “Inhibition (%) (Average)” value was 89.33%, the “Inhibition (%) Replicate A” value worked out at 88.58% and the “Inhibition (%) Replicate B” value was 90.08%. Also, the “rSmTAChE Data Mode” value on rSmTAChE [2] is given as “decreasing”. Also, the IC50 at rSmTAChE [2] (read-out: rSmTAChE qAC50) turned out to be 37.8 µM. In assay [3], the “rHsAChE Data Mode” value was “inactive”.

As for `COC(=O)/C=C/c1cccc(N(Cc2ccc(-c3ccc(N(C)C)cc3)cc2)C(=O)C2CCCCC2)c1` [BRD-K08864679-001-02-2], at rSmTAChE [1], the “Inhibition (%) (Average)” value came to 67.27%, the “Inhibition (%) Replicate A” value is 71.08% and the “Inhibition (%) Replicate B” value is on record as 63.46%. Also, the “Data Mode (curve class), rSmTAChE” value on rSmTAChE [2] is “inactive”. Also, in assay [3], the “Data Mode (curve class), rHsAChE” value was “inactive”.

On to `O=C(NC(=O)c1c(F)cccc1F)Nc1cc(Cl)c(OC(F)(F)C(F)C(F)(F)F)cc1Cl` (stereo not drawn) [Lufenuron, reference compound], for which, on rSmTAChE [1], the inhibition at 20 µM was 92.6%. For the same compound, at rSmTAChE [2], the “Data Mode (curve class), rSmTAChE” value is given as “decreasing (weakly active)”. For the same compound, the “Data Mode (curve class), rHsAChE” value in assay [3] is “decreasing”. Also, the IC50 amounted to 12 µM in assay [3] (IC50 (µM) rHsAChE) and 12 µM in assay [3] (qAC50 (IC50), rHsAChE).

With `COc1ccc(NC(=O)Nc2ccc3c(c2)[C@@H]2C[C@H](CC(=O)NCC4CC4)O[C@@H](CO)[C@@H]2O3)cc1` [BRD-K17285234-001-01-9], on rSmTAChE [1], the “Inhibition (%) (Average)” value came to 89.37%, the “Inhibition (%) Replicate A” value is given as 90.41% and the “Inhibition (%) Replicate B” value came to 88.34%. Moreover, on rSmTAChE [2], the “rSmTAChE Data Mode” value is reported as “decreasing (weakly active)”. Moreover, the “rHsAChE Data Mode” value in assay [3] was “inactive”.

As to `COC(=O)C1=C(C)NC(C)=C(C(=O)OC/C=C/c2ccccc2)C1c1cccc([N+](=O)[O-])c1` (stereo not drawn) [BRD-A68083442-001-01-6], on rSmTAChE [1], the “Inhibition (%) (Average)” value is listed as 87.10%, the “Inhibition (%) Replicate A” value is 86.49% and the “Inhibition (%) Replicate B” value amounted to 87.72%. The “Data Mode (curve class), rSmTAChE” value at rSmTAChE [2] was “inactive”. In addition, the “Data Mode (curve class), rHsAChE” value in assay [3] was “inactive”.

Usually inhibition stands for how much of the control response was suppressed.
